Reference: patent US4233310A, “Antiarteriosclerotic N-(mercaptoacyl)-histidines” (Santen Pharmaceutical Co., Ltd., priority 1976, dated 1980)

Key:
[1] = Hypolipid action in rats fed 2% cholesterol-containing diet (serum and liver lipids); format: in vivo, Wistar strain male rats; settings: 100 mg/kg orally twice a day for one week; for Liver lipid: Cholesterol content / Liver lipid: Phospholipid content / Liver lipid: Triglyceride content / Serum lipid: Cholesterol content / Serum lipid: Phospholipid content / Serum lipid: Triglyceride content: fasted 16 hours, mean ± standard; for Liver lipid: Cholesterol % / Liver lipid: Phospholipid % / Liver lipid: Triglyceride % / Serum lipid: Cholesterol % / Serum lipid: Phospholipid % / Serum lipid: Triglyceride %: % of control (control = 100)
Description: (§1) Pharmacological study (Hypolipid action)
(§2) A 2% aqueous solution of N-(mercaptoacetyl)-L-histidine and N-(3-mercaptopropionyl)-L-histidine, previously neutralized to pH 7.0 with sodium hydroxide, was administered orally to Wistar strain male rats at a dose of 100 mg/kg twice a day for one week. After the final administration of the test solution, the rats were fasted for 16 hours. Cholesterol, triglyceride and phospholipid levels in serum and liver were determined. The rats were divided into two groups. One group was fed a stock diet, and the other a 2% cholesterol-containing diet.
Group fed with cholesterol containing diet

[2] = Hypolipid action in rats fed stock diet (serum and liver lipids); format: in vivo, Wistar strain male rats; settings: 100 mg/kg orally twice a day for one week; for Liver lipid: Cholesterol content / Liver lipid: Phospholipid content / Liver lipid: Triglyceride content / Serum lipid: Cholesterol content / Serum lipid: Phospholipid content / Serum lipid: Triglyceride content: fasted 16 hours, mean ± standard; for Liver lipid: Cholesterol % / Liver lipid: Phospholipid % / Liver lipid: Triglyceride % / Serum lipid: Cholesterol % / Serum lipid: Phospholipid % / Serum lipid: Triglyceride %: % of control (control = 100)
Description: as §1, §2
Group fed with stock diet

[3] = Acute toxicity (LD50, intraperitoneal); settings: rat, in vivo, ip, 5% solution pH 7.0, 7-day observation, Litchfield-Wilcoxon method
Description: ddy Strain male rats, 4 weeks of age, weighing 18-20 g were placed in a room of constant temperature and humidity (24°±1° C., 55+5%) and fed freely a pellet diet (CE-2, made by Clea Japan Inc.) and water for one week. Out of them, rats showing normal growth were selected for the experiment.
N-(3-mercaptopropionyl)-L-histidine was added to physiological saline, and was neutralized to pH 7.0 with 4 N sodium hydroxide a 5% solution of this solution was used as the test solution, being administered intraperitoneally to the rats.

| Compound | Liver lipid: Cholesterol content [1] [mg/total liver weight] | Liver lipid: Phospholipid content [1] [mg/total liver weight] | Liver lipid: Triglyceride content [1] [mg/total liver weight] | Serum lipid: Cholesterol content [1] [mg/dL] | Serum lipid: Phospholipid content [1] [mg/dL] | Serum lipid: Triglyceride content [1] [mg/dL] | Liver lipid: Cholesterol % [1] [%] | Liver lipid: Phospholipid % [1] [%] | Liver lipid: Triglyceride % [1] [%] | Serum lipid: Cholesterol % [1] [%] | Serum lipid: Phospholipid % [1] [%] | Serum lipid: Triglyceride % [1] [%] | Liver lipid: Cholesterol content [2] [mg/total liver weight] | Liver lipid: Phospholipid content [2] [mg/total liver weight] | Liver lipid: Triglyceride content [2] [mg/total liver weight] | Serum lipid: Cholesterol content [2] [mg/dL] | Serum lipid: Phospholipid content [2] [mg/dL] | Serum lipid: Triglyceride content [2] [mg/dL] | Liver lipid: Cholesterol % [2] [%] | Liver lipid: Phospholipid % [2] [%] | also measured |
| --- | --- | --- | --- | --- | --- | --- | --- | --- | --- | --- | --- | --- | --- | --- | --- | --- | --- | --- | --- | --- | --- |
| O=C(CS)N[C@@H](Cc1c[nH]cn1)C(=O)O [Compound 1, N-(mercaptoacetyl)-L-histidine] | 52.4 ± 3.6 | 112.6 ± 5.8 | 17.0 ± 1.4 | 269.5 ± 4.8 | 178.6 ± 9.8 | 81.4 ± 10.2 | 83.4 | 93.2 | 97.7 | 88.7 | 87.8 | 71.6 | 19.7 ± 0.8 | 175.1 ± 7.3 | 24.4 ± 2.0 | 53.2 ± 1.9 | 95.1 ± 3.2 | 56.0 ± 5.6 | 89.5 | 89.7 | Liver lipid: Triglyceride % [2]: 61.5%; Serum lipid: Cholesterol % [2]: 83.6%; Serum lipid: Phospholipid % [2]: 83.9%; Serum lipid: Triglyceride % [2]: 65.0% |
| O=C(CCS)N[C@@H](Cc1c[nH]cn1)C(=O)O [Compound 2, N-(3-mercaptopropionyl)-L-histidine] | 60.3 ± 4.0 | 116.4 ± 4.2 | 17.1 ± 1.5 | 246.9 ± 27.8 | 173.9 ± 7.0 | 79.2 ± 4.9 | 96.0 | 96.4 | 98.3 | 81.4 | 85.5 | 69.7 | 18.9 ± 0.4 | 163.6 ± 1.7 | 30.8 ± 4.5 | 45.4 ± 0.4 | 93.4 ± 4.8 | 49.5 ± 5.5 | 85.9 | 83.8 | LD50 at 168 h [3]: 4040 mg/kg; Liver lipid: Triglyceride % [2]: 77.6%; Serum lipid: Cholesterol % [2]: 71.4%; Serum lipid: Phospholipid % [2]: 82.4%; Serum lipid: Triglyceride % [2]: 57.5% |
